Reference: patent publication EP2899531B1, “Method for detecting a chiral analytes” (Jacobs University Bremen gGmbH, priority 2013, dated 2015)
Peptide text beside a SMILES is read from it.

Tests used:
CB8-MDAP = assay: Binding constants of chiral analytes with CB8-MDAP receptor complex, UV/Vis titration; conditions: CB8-MDAP (100 µM), H2O, 22 °C; from UV/Vis titrations, estimated error ≤ 10%
Text: (§1) Bindungskonstanten zwischen CB8-Farbstoff-Komplexen und den in Tabelle 1 aufgeführten Analyten wurden mittels UV/Vis-Titration in H2O, sofern nicht anders angegeben, durchgeführt. Zu einer Lösung aus dem CB8-Farbstoff-Rezeptor wurde schrittweise eine Lösung des Analyten gegeben, und die UV/Vis-Spektren wurden aufgezeichnet. Die normalisierte Absorption bei 419 nm (CB8-MDAP) oder bei 443 nm (CB8-MDPP) wurde mit einer Gleichung für eine 1:1-Bindung mittels der Kleinstquadratmethode angepasst ([50]).

CB8-MDPP [1] = assay: Binding constants of chiral analytes with CB8-MDPP receptor complex, UV/Vis titration; conditions: CB8-MDPP (20 µM), H2O, 22 °C; from UV/Vis titrations, estimated error ≤ 10%
Text: as §1

CB8-MDPP [2] = assay: Binding constants of chiral analytes with CB8-MDPP receptor complex, ICD titration; conditions: CB8-MDPP (20 µM), H2O, 22 °C; obtained by ICD titration
Text: Die Bindungsaffinitäten der strukturell verschiedenartigen Analyten lagen im Bereich von 10^3 bis 10^6 M^-1, wodurch eine hochempfindliche Detektion ermöglicht wird. Die durch ICD-Titrationen ermittelten Bindungskonstanten bestätigten die durch UV/Vis-Messungen ermittelten. In allen Fällen fungiert CB8 als unverzichtbare Grundlage für die ICD-Effekte. […] Wie erwartet, ergab ein anderer Reporter-Farbstoff, MDAP oder MVE, jeweils ein anderes ICD-Spektrum, jedoch bei gleichermaßen niedriger Analytenkonzentration (40-100 µM, im Vergleich zu 20 µM, s. Tabelle 4, Fig. 3).

| Ka (CB8-MDAP) | Ka (CB8-MDPP [1]) | Ka (CB8-MDPP [2]) | Structure (SMILES) |
| --- | --- | --- | --- |
| 0.8 10^3 M^-1 | 7 10^3 M^-1 |  | N[C@@H](CC(=O)O)C(=O)N[C@@H](Cc1ccccc1)C(=O)O [AspPhe] (H-Asp-Phe-OH) |
| 25 10^3 M^-1 | 210 10^3 M^-1 |  | N[C@@H](CCC(=O)O)C(=O)N[C@@H](Cc1c[nH]c2ccccc12)C(=O)O [GluTrp] (H-Glu-Trp-OH) |
|  | 5000 10^3 M^-1 |  | NCC(=O)N[C@@H](Cc1c[nH]c2ccccc12)C(=O)NCC(=O)O [GlyTrpGly] (H-Gly-Trp-Gly-OH) |
| 25 10^3 M^-1 | 1900 10^3 M^-1 |  | N[C@@H](Cc1ccccc1)C(=O)NCC(=O)O [PheGly] (H-Phe-Gly-OH) |
| 11 10^3 M^-1 | 1500 10^3 M^-1 | 1400^d 10^3 M^-1 | CC(C)[C@H](NC(=O)[C@@H](N)Cc1ccccc1)C(=O)O [PheVal] (H-Phe-Val-OH) |
|  | 200 10^3 M^-1 |  | N[C@@H](Cc1c[nH]c2ccccc12)C(=O)NCC(=O)NCC(=O)O [TrpGlyGly] (H-Trp-Gly-Gly-OH) |
| 50 10^3 M^-1 | 430 10^3 M^-1 |  | N[C@@H](Cc1c[nH]c2ccccc12)C(=O)N1CCC[C@H]1C(=O)O [TrpPro] (H-Trp-Pro-OH) |
